Experimental data: patent US6995022B1, “Screening of xenobiotics and endogenous compounds for metabolic transformation, formation of toxic metabolites, and bioavailability” (Board of Trustees of the University of Illinois, priority 1998, dated 2006)

Experiments:
[1] = tested on: rat liver microsomal cytochromes P450; details: for extent of metabolism by cytochromes P450 indicated by high throughput assays: microsomes
Protocol: Chlorpromazine is an antidepressant-drug that undergoes extensive hepatic metabolism. […] The area under the curve for unreacted chlorpromazine is proportional to the amount of chlorpromazine consumed during the on-line metabolism experiment.
Pentoxyresorufin (1 μg) was injected into the ultrafiltration chamber containing hepatic microsomes as described herein.
Microsomes may be prepared from any types of cells or tissues, which are obtained from any species including humans. For the examples cited, male or female Sprague-Dawley rats (180-200 g) were obtained from Sasco Inc. (Omaha, Nebr.). Microsomes were prepared from rat liver, and protein and cytochrome P450 concentrations were determined using standard procedures (1). […] This washing step may be accelerated by using a higher flow rate, but care should be taken to avoid excessive pressure and rupture of the ultrafiltration membrane.
The ultrafiltration chamber (FIG. 1B) was built in-house out of polyetheretherketone (PEEK) and contained a Teflon®-coated magnetic stirring bar and a Viton® O-ring, which formed a seal around the ultrafiltration membrane. […] Chromatography tubing and fittings were made from polyetheretherketone (PEEK, Upchurch Scientific, Oak Harbor, Wash.).
NADPH and drug substrates were purchased from Sigma Chemical Company (St. Louis, Mo. All solvents were HPLC grade. Into a mobile phase consisting of 50 mM anmmonium acetate, pH 7.4, and 0.1 mM NADPH at a flow rate of 70 μL/min, chlorpromazine (3 μg) in 50 μL buffer was injected into the ultrafiltration chamber. Protonated molecules of chlorpromazine, cofactor NADPH, and the microsomal metabolic products were recorded continuously using positive ion electrospray mass spectrometry. In another experiment, 1 μg of pentoxyresorufin was injected into the ultrafiltration chamber containing hepatic microsomes as described above. […] In some experiments, NADPH was injected simultaneously with substrate instead of being added to the mobile phase.
Typically, a wide mass range was scanned by the mass spectrometer in order to identify the major metabolites (if unknown). Once the major metabolites are known or if only the compounds injected into the first chamber need to be analyzed, selected ion monitoring mass spectrometry is used to follow the appearance of metabolites, monitor the consumption of NADPH, and/or monitor the profile of unreacted compound(s).
The transfer line between the ultrafiltration chamber and the mass spectrometer was flushed for 1 min, then mass spectra were recorded for 2 min.

[2] = tested on: cytochrome P450 isozymes; details: cited from earlier work
[3] = tested on: Caco-2 cells; type: in vitro ADME; details: human, Caco-2, 118 µM
Protocol: Bioavailability assays are generally carried out in one of two ways. In one type of assay, the chamber is loaded with cells (i.e., Caco-2 human intestinal epithelial cells) such that the volume of the cells is significant compared to the volume of the chamber (e.g., 1 million cells/mL), and a size exclusion experiment is carried out. (Hidalgo, et al. 1989). An aliquot of a drug mixture is injected through the chamber and the elution profile is recorded by the mass spectrometer detector. The mixture may contain a single drug or a mixture of drugs under investigation and two internal controls: The negative control compound (such as mannitol) is excluded from entering the cells; and the positive control compound (such as certain steroids) readily enters the cells. Compounds that are excluded from the cells are washed out of the ultrafiltration chamber faster and are detected first, while compounds that enter the cells are distributed into a larger volume within the chamber and require longer to elute. In this manner, quantitative bioavailability or absorption data may be determined. In another type of bioavailability assay, a monolayer of cells (i.e., Caco-2 cells) is grown on an ultrafiltration membrane, which is then mounted in the ultrafiltration chamber with the cells facing the interior of the chamber. […] Compounds that readily enter and pass through the cells are detected first. […]

[4] = tested on: rat liver microsomes containing cytochromes P450 and microsomal glutathione S-transferase
Text: Alternatively, reactive metabolites may be trapped as phase II conjugates such as glutathione adducts.
Glutathione adducts formed from reactive drugs or their activated metabolites in the ultrafiltrate may be trapped and concentrated on a trapping column and then analyzed using LC-MS or LC-MS-MS for identification of the metabolites and for the differentiation of isomeric products.

Row | metabolites detected in high throughput metabolic screening [1] | extent of metabolism by cytochromes P450 indicated by high throughput assays [1] | Compound | effect on cytochrome P450 isozymes according to the literature [2] | metabolism according to the literature [2] | other results
1 | no metabolites | not | C=C[C@H]1C[N@@]2CC[C@H]1C[C@@H]2[C@@H](O)c1ccnc2ccc(OC)cc12 [quinidine] | inhibit the action of certain cytochrome P450 isozymes | not metabolized | 
2 | observed | extensive metabolism | CN(C)CCCN1c2ccccc2Sc2ccc(Cl)cc21 [chlorpromazine] |  | metabolized extensively | 
3 | no metabolites | not | O=C1C[C@@H](c2ccc(O)cc2)Oc2cc(O)cc(O)c21 [naringenin] | inhibit the action of certain cytochrome P450 isozymes | not metabolized | 
4 |  |  | CCCCCOc1ccc2nc3ccc(=O)cc-3oc2c1 [Pentoxyresorufin] |  |  | metabolism in control without NADPH [1]: no metabolism occurred
5 |  |  | CC(=O)Oc1ccccc1C(=O)O [aspirin] |  |  | relative elution rates aspirin/propranolol (ratio of slopes of ln [drug] vs. elution time) [3]: 1.6:1
6 |  |  | Cc1c[nH]c2ccccc12 [3-methylindole] |  |  | glutathione adducts detected [4]: observed
